Assay results published in US11629171B2, “Beta-hairpin peptidomimetics” (POLYPHOR AG, priority 2017, dated 2023).
In brackets after ≈: the same amount, converted by molar mass. Where a SMILES comes first, the peptide text is derived from it. Bridges are numbered along the chain shown (N, C = ends). Roman numbers before positions name the chains, in order. [ ]: non-standard residue; d: D form. NMeDab = CN[C@@H](CCN)C(=O)O; dDab = NCC[C@@H](N)C(=O)O; Dab = NCC[C@H](N)C(=O)O; Abu = CC[C@H](N)C(=O)O; Dap = NC[C@H](N)C(=O)O

Experiments:
male ICR mice = assay: Tolerability in a mouse model (Maximum Tolerated Dose assay); type: in vivo; details: groups of 3
In short: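 Groups of 3 male ICR mice weighing 23±3 g received two subcutaneous doses, 12 h apart, of 30 or 40 mg/kg in saline adjusted to pH 6.5-7.6. Observation for 30 min after each dose covered autonomic effects and acute toxicity, including death.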

[1] = system: Pseudomonas aeruginosa ATCC 27853; type: cell-based; details: ATCC 27853
In short: (§1)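 Two-fold peptide dilutions in polysorbate 80-containing (0.002% final) cation-adjusted Mueller-Hinton II broth were inoculated with about 10^6 CFU/mL. The MIC was taken as the lowest concentration, in μg/mL, preventing visible growth at 18-20 hours and 35° C.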

[2] = system: Acinetobacter baumannii 872842; type: cell-based; details: 872842
In short: as §1

[3] = system: Escherichia coli ATCC 25922; type: cell-based; details: ATCC 25922
In short: as §1

Escherichia coli 926415 = type: cell-based; details: 926415
In short: as §1

[4] = system: Klebsiella pneumoniae 968733; type: cell-based; details: 968733
In short: as §1

[5] = system: Klebsiella pneumoniae SSI #3010; type: cell-based; details: SSI #3010
In short: as §1

[6] = system: Acinetobacter baumannii DSM 30008; type: cell-based; details: DSM 30008
In short: as §1

[7] = system: Enterobacter cloacae 848840; type: cell-based; details: 848840
In short: as §1

[8] = system: human red blood cells (hRBC); assay: Hemolysis; type: cell-based; details: red cells of human, 1 h, 200
In short: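 hRBC washed 4× in PBS; 200 μg/mL peptide + 20% (v/v) hRBC, 1 h, 37° C, 300 rpm. Spin, supernatant ~7.5-fold diluted, OD540 blank corrected. % hemolysis = OD540 peptide / OD540 Triton X-100 × 100.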

[9] = 2 × 40 mg/kg s.c. at a 12-hr interval

CC(=O)N[C@H](C(=O)N[C@H]1CSSC[C@@H](C(=O)N[C@@H](CO)C(N)=O)NC(=O)[C@H](C(C)C)NC(=O)[C@H](CO)NC(=O)[C@H](Cc2c[nH]c3ccccc23)NC(=O)[C@H](CO)NC(=O)[C@@H](CCN)NC(=O)[C@H](CCC(=O)N(C)[C@@H](CCN)C(=O)N[C@H](C(=O)N[C@@H](CN)C(=O)N[C@H]2CCNC(=O)[C@H]([C@@H](C)O)NC(=O)[C@H](CCN)NC(=O)[C@H](CCN)NC(=O)[C@H](CC(C)C)NC(=O)[C@@H](CC(C)C)NC(=O)[C@H](CCN)NC2=O)[C@@H](C)O)NC(=O)[C@H](CCN)NC(=O)[C@H](Cc2ccc(O)cc2)NC1=O)C(C)C [Ex. 311] (I: Ac-VCY[Dab]E[dDab]SWSVCS-NH2 / II: [NMeDab]T[Dap][Dab][Dab][dL]L[Dab][Dab]T; disulfide I:2-I:11; amide I:5-II:N; lactam II:4-II:C)
Mortality and dose (male ICR mice; [9]): 0/3 died at 2 × 40 mg/kg | Pseudomonas aeruginosa ATCC 27853 MIC [1]: 0.25 µg/mL | MIC [2]: 0.125 µg/mL (≈ 0.0518 µM) | Escherichia coli ATCC 25922 MIC [3]: 0.0625 µg/mL | MIC (Escherichia coli 926415): 0.25 µg/mL (≈ 0.104 µM) | MIC [4]: 0.125 µg/mL (≈ 0.0518 µM) | Klebsiella pneumoniae SSI #3010 MIC [5]: 0.0625 µg/mL | Acinetobacter baumannii DSM 30008 MIC [6]: 0.0625 µg/mL | MIC [7]: 0.125 µg/mL (≈ 0.0518 µM) | Hemolysis at 200 μg/mL [8]: <1%

CC(=O)N[C@H](C(=O)N[C@H]1CSSC[C@@H](C(=O)N[C@@H](CO)C(N)=O)NC(=O)[C@H](C(C)C)NC(=O)[C@H](CO)NC(=O)[C@H](Cc2c[nH]c3ccccc23)NC(=O)[C@H](CO)NC(=O)[C@@H](CCN)NC(=O)[C@H](CCC(=O)N[C@H](CCN)C(=O)N[C@H](C(=O)N[C@@H](CN)C(=O)N[C@H]2CCNC(=O)[C@H]([C@@H](C)O)NC(=O)[C@H](CCN)NC(=O)[C@H](CCN)NC(=O)[C@H](CC(C)C)NC(=O)[C@@H](CC(C)C)NC(=O)[C@H](CCN)NC2=O)[C@@H](C)O)NC(=O)[C@H](CCN)NC(=O)[C@H](Cc2ccc(O)cc2)NC1=O)C(C)C [Ex. 310] (I: Ac-VCY[Dab]E[dDab]SWSVCS-NH2 / II: [dDab]T[Dap][Dab][Dab][dL]L[Dab][Dab]T; disulfide I:2-I:11; amide I:5-II:N; lactam II:4-II:C)
Mortality and dose (male ICR mice; [9]): 0/3 died at 2 × 40 mg/kg | Pseudomonas aeruginosa ATCC 27853 MIC [1]: 0.125 µg/mL | MIC [2]: 0.0625 µg/mL (≈ 0.0261 µM) | Escherichia coli ATCC 25922 MIC [3]: 0.03125 µg/mL | MIC (Escherichia coli 926415): 0.0625 µg/mL (≈ 0.0261 µM) | MIC [4]: 0.0625 µg/mL (≈ 0.0261 µM) | Klebsiella pneumoniae SSI #3010 MIC [5]: 0.0625 µg/mL | Acinetobacter baumannii DSM 30008 MIC [6]: 0.0625 µg/mL | MIC [7]: 0.0625 µg/mL (≈ 0.0261 µM) | Hemolysis at 200 μg/mL [8]: <1%

CC[C@@H]1NC(=O)[C@@H](CC(C)C)NC(=O)[C@H](CCN)NC(=O)[C@@H](NC(=O)[C@H](CN)NC(=O)[C@@H](NC(=O)[C@H](CCN)NC(=O)CC[C@@H]2NC(=O)[C@H](CCN)NC(=O)[C@H](Cc3ccc(O)cc3)NC(=O)[C@@H](NC(=O)[C@@H](NC(C)=O)C(C)C)CSSC[C@@H](C(=O)N[C@@H](CO)C(N)=O)NC(=O)[C@H](C(C)C)NC(=O)[C@H](CO)NC(=O)[C@H](Cc3c[nH]c4ccccc34)NC(=O)[C@H](CO)NC(=O)[C@@H](CCN)NC2=O)[C@@H](C)O)CCNC(=O)[C@H]([C@@H](C)O)NC(=O)[C@H](CCN)NC(=O)[C@H](CCN)NC1=O [Ex. 137] (I: Ac-VCY[Dab]E[dDab]SWSVCS-NH2 / II: [Dab]T[Dap][Dab][Dab][dL][Abu][Dab][Dab]T; disulfide I:2-I:11; amide I:5-II:N; lactam II:4-II:C)
Mortality and dose (male ICR mice; 2 × 30 mg/kg s.c. at a 12-hr interval): 0/3 died at 2 × 30 mg/kg | MIC [1]: 0.125 µg/mL (≈ 0.0527 µM) | MIC [2]: 0.125 µg/mL (≈ 0.0527 µM) | MIC [3]: 0.03125 µg/mL (≈ 0.0132 µM) | MIC (Escherichia coli 926415): 0.125 µg/mL (≈ 0.0527 µM) | MIC [4]: 0.125 µg/mL (≈ 0.0527 µM) | MIC [5]: 0.0625 µg/mL (≈ 0.0264 µM) | MIC [6]: 0.0625 µg/mL (≈ 0.0264 µM) | MIC [7]: 0.0625 µg/mL (≈ 0.0264 µM) | Hemolysis at 200 μg/mL [8]: 1%
